Data reported in PubChem BioAssay AID218 (DTP/NCI, 2004).
“And” between values parts separate entries of the source, which are not always exact repeats. Equal values may be shown once. Non-standard residues stand in square brackets, D forms with d. Residues, ends and D or L forms follow the SMILES beside them. Ac5c = NC1(C(=O)O)CCCC1

Test system: C57BL/6 mice, Adenocarcinoma 755 sc, tumor weight T/C
Test: NCI In Vivo Anticancer Drug Screen. Data for tumor model Adenocarcinoma 755 (subcutaneous) in C57BL/6 mice
Conditions: endpoint: mean tumor weight, higher = larger tumour
Method: The antitumor activity of compounds was measured in mice bearing transplantable tumors. Survival or tumor size were measured and the results are expressed as the measurement made in the treated group (T) divided by the measurement made in the vehicle treated control group (C). The tumor model used in this assay is Adenocarcinoma 755 (subcutaneous) in C57BL/6 mice

[1] = dose: 7.5 mg/kg/injection, schedule: Q01DX011 (oral), vehicle: saline
[2] = dose: 50.0 mg/kg/injection, schedule: Q01DX011 (ip), vehicle: saline
[3] = dose: 225.0 mg/kg/injection, schedule: Q02DX006 (ip), vehicle: water
[4] = dose: 25.0 mg/kg/injection, schedule: Q01DX011 (ip), vehicle: saline
[5] = dose: 100.0 mg/kg/injection, schedule: Q01DX011 (ip), vehicle: saline
[6] = dose: 75.0 mg/kg/injection, schedule: Q01DX011 (ip), vehicle: saline
[7] = dose: 150.0 mg/kg/injection, schedule: Q01DX011 (ip), vehicle: saline
[8] = dose: 250.0 mg/kg/injection, schedule: Q01DX011 (ip), vehicle: saline
[9] = dose: 500.0 mg/kg/injection, schedule: Q01DX011 (ip), vehicle: saline
[10] = dose: 1000.0 mg/kg/injection, schedule: Q01DX011 (ip), vehicle: saline
[11] = dose: 2000.0 mg/kg/injection, schedule: Q01DX011 (ip), vehicle: saline

C=CC(CN1CC1)OC(C)=O (stereo not given) was tested, and the T/C (dose: 1.0 mg/kg/injection, schedule: Q01DX011 (oral), vehicle: saline) was 63 % of control, the T/C (dose: 1.0 mg/kg/injection, schedule: Q#A X022 (ip), vehicle: saline) was 92 % of control and the T/C (dose: 2.0 mg/kg/injection, schedule: Q01DX011 (ip), vehicle: saline) was 66 % of control. The T/C (dose: 2.0 mg/kg/injection, schedule: Q01DX011 (oral), vehicle: saline) was 49 % of control, the T/C (dose: 2.0 mg/kg/injection, schedule: Q#A X022 (ip), vehicle: saline) was 43 % of control and the T/C (dose: 3.25 mg/kg/injection, schedule: Q01DX011 (oral), vehicle: saline) was 38 % of control. For the same compound, the T/C (dose: 4.0 mg/kg/injection, schedule: Q01DX011 (ip), vehicle: saline) was 38 % of control, the T/C (dose: 4.0 mg/kg/injection, schedule: Q01DX011 (oral), vehicle: saline) was 26 % of control and the T/C (dose: 4.0 mg/kg/injection, schedule: Q01DX011 (sc), vehicle: saline) was 14 % of control. For the same compound, the T/C (dose: 6.0 mg/kg/injection, schedule: Q03DX004 (ip), vehicle: saline) was 88 % of control, the T/C [1] was 15 % of control and the T/C (dose: 8.0 mg/kg/injection, schedule: Q01DX011 (ip), vehicle: saline) was 17 % of control. For the same compound, the T/C (dose: 8.0 mg/kg/injection, schedule: Q01DX011 (oral), vehicle: saline) was 21 % of control, the T/C (dose: 8.0 mg/kg/injection, schedule: Q01DX011 (sc), vehicle: saline) was 8 % of control and the T/C (dose: 12.0 mg/kg/injection, schedule: Q03DX004 (ip), vehicle: saline) was 59 % of control. For the same compound, the T/C (dose: 16.0 mg/kg/injection, schedule: Q01DX011 (oral), vehicle: saline) was 5 % of control and the T/C (dose: 24.0 mg/kg/injection, schedule: Q03DX004 (ip), vehicle: saline) was 11 % of control.
For CCOC(=O)n1cnc2ncnc(N)c21, the T/C (dose: 25.0 mg/kg/injection, schedule: Q01DX011 (ip), vehicle: carboxymethylcellulose (CMC)) was 56 % of control and the T/C (dose: 75.0 mg/kg/injection, schedule: Q01DX011 (ip), vehicle: carboxymethylcellulose (CMC)) was 104 % of control.
O=c1[nH]cc(Br)c(=O)[nH]1 was tested, and the T/C (dose: 50.0 mg/kg/injection, schedule: Q02DX006 (ip), vehicle: other) was 56 % of control and the T/C (dose: 75.0 mg/kg/injection, schedule: Q02DX006 (ip), vehicle: other) was 71 % of control.
C=CC(COC(C)=O)N1CC1 (stereo not given) was tested, and the T/C (dose: 1.87 mg/kg/injection, schedule: Q01DX011 (oral), vehicle: saline) was 107 % of control, the T/C (dose: 3.75 mg/kg/injection, schedule: Q01DX011 (oral), vehicle: saline) was 56 % of control and the T/C [1] was 70 % of control and 80 % of control.
CCN(CC)c1ncnc2[nH]ncc12 was tested, and the T/C (dose: 40.0 mg/kg/injection, schedule: Q01DX011 (ip), vehicle: saline) was 25 % of control and the T/C [2] was 23 % of control.
O=C(O)CCCCC1NC(=O)CS1 (stereo not given) was tested, and the T/C [3] was 91 % of control and the T/C (dose: 275.0 mg/kg/injection, schedule: Q02DX006 (ip), vehicle: water) was 101 % of control.
For N/C(=N/N=C/c1ccc([N+](=O)[O-])cc1)N[N+](=O)[O-], the T/C (dose: 150.0 mg/kg/injection, schedule: Q02DX006 (ip), vehicle: saline) was 53 % of control and the T/C (dose: 200.0 mg/kg/injection, schedule: Q02DX006 (ip), vehicle: saline) was 37 % of control.
In the case of CN(C)C1C(=O)C(C(N)=O)=C(O)C2(O)C(=O)C3=C(O)c4c(O)cccc4C(C)(O)C3C(O)C12 (stereo not given), the T/C (dose: 125.0 mg/kg/injection, schedule: Q02DX006 (ip), vehicle: water) is reported as 58 % of control and the T/C (dose: 150.0 mg/kg/injection, schedule: Q02DX006 (ip), vehicle: water) is reported as 106 % of control.
With NCC(=O)NC1(C(=O)O)CCCC1 (H-Gly-[Ac5c]-OH) the T/C [4] was 58 % of control, the T/C [2] was 37 % of control and the T/C [5] was 9 % of control.
CCC(C)N1C(=O)CCC1=O (stereo not given) was tested, and the T/C (dose: 4.7 mg/kg/injection, schedule: Q01DX011 (ip), vehicle: saline) was 102 % of control, the T/C (dose: 9.4 mg/kg/injection, schedule: Q01DX011 (ip), vehicle: saline) was 103 % of control and the T/C (dose: 18.8 mg/kg/injection, schedule: Q01DX011 (ip), vehicle: saline) was 123 % of control. For the same compound, the T/C (dose: 37.5 mg/kg/injection, schedule: Q01DX011 (ip), vehicle: saline) was 119 % of control, the T/C [6] was 59 % of control and the T/C [7] was 95 % of control.
In the case of S=c1nc[nH]c2nc[nH]c12, the T/C (dose: 1.5 mg/kg/injection, schedule: Q01DX011 (ip), vehicle: carboxymethylcellulose (CMC)) is reported as 26 % of control, the T/C (dose: 2.5 mg/kg/injection, schedule: Q01DX011 (ip), vehicle: carboxymethylcellulose (CMC)) is reported as 7 % of control and the T/C (dose: 2.5 mg/kg/injection, schedule: Q01DX011 (ip), vehicle: saline) is reported as 4 % of control. For the same compound, the T/C (dose: 5.0 mg/kg/injection, schedule: Q01DX011 (ip), vehicle: saline) was 8 % of control and 13 % of control, the T/C (dose: 5.0 mg/kg/injection, schedule: Q01DX011 (oral), vehicle: carboxymethylcellulose (CMC)) was 1 % of control and the T/C (dose: 6.0 mg/kg/injection, schedule: Q01DX011 (ip), vehicle: carboxymethylcellulose (CMC)) was 4 % of control. For the same compound, the T/C (dose: 10.0 mg/kg/injection, schedule: Q02DX006 (ip), vehicle: other) was 2 % of control, the T/C (dose: 15.0 mg/kg/injection, schedule: Q01DX011 (ip), vehicle: saline) was 6 % of control and the T/C (dose: 20.0 mg/kg/injection, schedule: Q01DX011 (ip), vehicle: carboxymethylcellulose (CMC)) was 2 % of control. The T/C (dose: 20.0 mg/kg/injection, schedule: Q01DX011 (oral), vehicle: alkali diluted with saline) was 2 % of control, the T/C (dose: 20.0 mg/kg/injection, schedule: Q02DX006 (ip), vehicle: other) was 2 % of control and the T/C (dose: 30.0 mg/kg/injection, schedule: Q02DX006 (ip), vehicle: other) was 3 % of control. The T/C (dose: 40.0 mg/kg/injection, schedule: Q01DX011 (oral), vehicle: alkali diluted with saline) was 2 % of control, the T/C (dose: 80.0 mg/kg/injection, schedule: Q01DX011 (oral), vehicle: alkali diluted with saline) was 1 % of control and the T/C (dose: 320.0 mg/kg/injection, schedule: Q01DX001 (oral), vehicle: alkali diluted with saline) was 11 % of control. For the same compound, the T/C (dose: 320.0 mg/kg/injection, schedule: Q03DX004 (oral), vehicle: alkali diluted with saline) was 1 % of control, the T/C (dose: 320.0 mg/kg/injection, schedule: Q07DX002 (oral), vehicle: alkali diluted with saline) was 5 % of control and the T/C (dose: 480.0 mg/kg/injection, schedule: Q01DX001 (oral), vehicle: alkali diluted with saline) was 8 % of control. The T/C (dose: 480.0 mg/kg/injection, schedule: Q07DX002 (oral), vehicle: alkali diluted with saline) was 4 % of control, the T/C (dose: 640.0 mg/kg/injection, schedule: Q01DX001 (oral), vehicle: alkali diluted with saline) was 9 % of control and the T/C (dose: 640.0 mg/kg/injection, schedule: Q07DX002 (oral), vehicle: alkali diluted with saline) was 2 % of control. The T/C (dose: 960.0 mg/kg/injection, schedule: Q01DX001 (oral), vehicle: alkali diluted with saline) was 11 % of control.
For CNC=O, the T/C [4] was 92 % of control, the T/C [2] was 112 % of control and the T/C [5] was 64 % of control and 82 % of control. The T/C (dose: 125.0 mg/kg/injection, schedule: Q01DX011 (ip), vehicle: saline) was 98 % of control, the T/C (dose: 175.0 mg/kg/injection, schedule: Q02DX006 (ip), vehicle: water) was 40 % of control and the T/C (dose: 200.0 mg/kg/injection, schedule: Q01DX011 (ip), vehicle: saline) was 9 % of control and 30 % of control. For the same compound, the T/C [3] was 56 % of control.
For N=C(N)CCNC(=O)C1CCC(N)=N1 (stereo not given), the T/C (dose: 4.0 mg/kg/injection, schedule: Q02DX006 (ip), vehicle: saline) was 59 % of control, the T/C (dose: 6.0 mg/kg/injection, schedule: Q02DX006 (ip), vehicle: saline) was 29 % of control and 53 % of control and the T/C (dose: 10.0 mg/kg/injection, schedule: Q02DX006 (ip), vehicle: saline) was 44 % of control.
CS(=O)(=O)OCCCOS(C)(=O)=O was tested, and the T/C (dose: 15.0 mg/kg/injection, schedule: Q01DX011 (ip), vehicle: methylcellulose (MC)) was 83 % of control and the T/C (dose: 30.0 mg/kg/injection, schedule: Q01DX011 (ip), vehicle: methylcellulose (MC)) was 35 % of control.
For CN1CC(=O)NC1=O, the T/C [8] was 49 % of control, the T/C [9] was 68 % of control and the T/C [10] was 41 % of control. For the same compound, the T/C [11] was 70 % of control.
O=c1[nH]c(=O)c2n[nH]nc2[nH]1 was tested, and the T/C [6] was 154 % of control and the T/C [7] was 115 % of control.
With CN(CC(=O)O)C(=N)N the T/C [8] was 105 % of control, the T/C [9] was 110 % of control and the T/C [10] was 57 % of control. For the same compound, the T/C [11] was 102 % of control.
